In brackets after ≈: the same amount, converted by molar mass.
Experiment: Kinetic solubility assay (adapted shake flask method, McIlvaine buffer)
Assay type: physicochemical
Conditions: pH 6.8, aqueous buffer, kinetic from dmso stock
Experimental: 10. Kinetic Solubility assay
Kinetic Solubility assay protocol
Adapted standard shake flask method to run in 1 mL 96-deep-well plates at a concentration of 100 µM in McIlvaine Buffer at pH values of 6.8 from 10 mM DMSO stock solutions.
Compounds are prepared in triplicate and incubated in buffer at room temperature for 18 hours while shaking at 700 RPM. After incubation the 96-deep-well plate is centrifuged at 5000 g for 10 minutes, half of the volume is transferred to another deep well plate and centrifuged again at 5000 g for 10 minutes. 200 µL are transferred from each well to a Greiner Bio-one 200 µL 96-well V-bottom plate and sealed. A six-point calibration curve is prepared for each compound ranging from 100 µM down to 0.5 µM. All samples are analyzed via UV-UHPLC on an Agilent 1290 Infinity (binary pump, auto-sampler, column compartment at 55 °C, and PDA) with a Phenomenex Kinetex EVO C18, 50 x 1 mm, 1.7 µm, 100 Å column, at 0.5 mL. Injections of 3 µL are analyzed with gradient elution using Milli-Q water with 0.05% trifluoroacetic acid (A1) and acetonitrile with 0.05% trifluoroacetic acid (B1) from 95:5 A1/B1 to 5:95 A1/B1 over 1.3 minutes with a 0.2 minute hold at 5:95 A1/B1. Wavelengths at 215 nm and 254 nm are monitored, peaks are integrated, and the peak area and peak height are used with linear regression analysis from the calibration curves to determine the solubility values.6 Kinetic Solubility assay data
A kinetic solubility for d, e, f, and g was calculated in the following Table.
Compound Kinetic solubility (µM, pH=6.8)
Table S7. Kinetic solubility for representative compounds.

[1] = pH=6.8, McIlvaine Buffer, 100 µM from 10 mM DMSO stock, room temperature, 18 hours, triplicate

Row | solubility kinetic at 18 h (at neutral pH) [µM] | solubility kinetic at 18 h [1] [µM] | Structure (SMILES)
1 | 5.74 (≈ 1.74 µg/mL) |  | Cc1ccccc1Oc1ccccc1NC(=O)c1ccccc1 [d, reference compound]
2 | 79.1 (≈ 24.5 µg/mL) | 90.67 ± 0.32 (≈ 28.1 µg/mL) | Cc1ccccc1O[C@H]1CCNC[C@@H]1NC(=O)c1ccccc1 [e]
3 | 90.7 (≈ 26.9 µg/mL) | 79.07 ± 0.44 (≈ 23.4 µg/mL) | Cc1ccccc1O[C@H]1CNC[C@@H]1NC(=O)c1ccccc1 [f]
4 | 92.2 (≈ 31.2 µg/mL) |  | Cc1ccccc1O[C@H]1CCCNCC[C@@H]1NC(=O)c1ccccc1 [g]

Reference: publication PMC10913065, “Rapid sp^3-Enriched Scaffold Generation via a Selective Aziridine Amide Ring-Opening Reaction” (The Journal of Organic Chemistry, 2024)
